{"source": "patent US20070082910A1", "about": "“Specific nad(p)h oxidase inhibitor” (Mitsubishi Pharma Corporation, priority 2003, published 2007)", "key": {"NAD(P)H oxidase": {"test_system": "NAD(P)H oxidase", "assay": "IL-8 production inhibitory effect in HUVEC cultured with 44 mM glucose", "assay_type": "cell-based, human", "conditions": "for inhibitory rate (%) of IL-8 production: 8 days", "experimental": "NAD(P)HOxidase Inhibitory Effect (Method)\n44 mM glucose was added to Human Umbilical Vein Endothelial Cells (Bio Whittaker, hereinafter to be indicated as “HUVEC”), and cells were cultured for 8 days. Then, a lysis buffer containing a surfactant, Triton-X Nonidet P-40, was added, and interleukin-8 (hereinafter to be indicated as “IL-8”) in the cell lysate, which had been produced by NAD(P)H oxidase was measured by an enzyme-linked […]. The test compound was added one day before glucose addition.\nThe inhibitory rate was calculated from the following formula: inhibitory rate (%)=100−[(A−C)/(B−C)]×100\nwherein A is IL-8 production of a cell cultured in the presence of 44 mM glucose with addition of the test compound, B is IL-8 production of a cell cultured in the presence of 44 mM glucose without addition of the test compound, and C is IL-8 production of a cell cultured in the absence of 44 mM glucose and the test compound. The IC50 value was calculated from the dose-effect line drawn by the least squares method based on the obtained inhibitory rate."}, "[1]": {"test_system": "NAD(P)H oxidase in normal rat aorta", "assay": "Effect on normal rat NAD(P)H oxidase (superoxide anion production in aorta after administration)", "assay_type": "in vivo", "conditions": "10 mg/kg for 3 days", "experimental": "The test compound (10 mg/kg) was administered to normal male Wistar rats (Japan SLC) for 3 days, and the production amount of superoxide anion in the aorta was measured in the same manner as in Experimental Example 2.\nThe inhibitory rate (%) was calculated by the following formula: inhibitory rate (%)=100−(A/B)×100 wherein A is the standardized chemiluminescence value of the rats administered with the test compound, and B is the standardized chemiluminescence value of the rats without administration of the test compound (control group)."}, "[2]": {"test_system": "NAD(P)H oxidase in diabetic rat aorta", "assay": "Aorta NAD(P)H oxidase inhibitory effect, test compound added to aorta ring specimen in vitro", "assay_type": "biochemical", "conditions": "for chemiluminescence (×10^5 RLU/wet weight of aorta): mean ± standard error", "experimental": "This ring specimen was preincubated in Krebs-Hepes buffer containing the test compound (compound A, compound B or DPI (SIGMA)) at 37° C. for 10 min, and then transferred to Krebs-Hepes buffer containing 0.25 mM lucigenin. […] The total value of chemiluminescence was calculated from AUC of the curve drawn by plotting the chemiluminescence value (vertical axis) relative to the measurement time (horizontal axis). The obtained chemiluminescence value was divided by the wet weight of the vascular ring specimen and standardized to the superoxide anion production per aorta unit weight."}, "p22^Phox": {"test_system": "p22^Phox", "assay": "Effect on p22^Phox expression induced by oxidized LDL in HUVEC (RT-PCR)", "assay_type": "cell-based, human", "experimental": "HUVEC was seeded in a 24-well collagen-coated plate. Compound A was added, and oxidized LDL (100 μg/mL) prepared from the blood obtained from normal healthy volunteers was added 24 hr later.\nAt 24 hr after the oxidized LDL addition, total RNA was […] extracted using MgExtractor (TOYOBO) and DNase I treatment (Nippon gene) was conducted.\nThe concentration of the total RNA was calculated by measuring absorbance (OD260) of a fraction therefrom.\nUsing the obtained total RNA (100 ng), RT (reverse transcription) reaction (ABI) was carried out to synthesis cDNA.\nUsing the synthesized cDNA (10 μL), PCR (polymerase chain reaction) was carried out (ABI), and expression amounts of p22^Phox which is a major component of NAD(P)H oxidase, and β-actin as an internal standard were measured.\nThe expression amount of p22^Phox was standardized to the expression amount of β-actin and expressed based on the expression amount of (p22^Phox)/( β-actin) of normal as 100%."}, "[3]": {"test_system": "rabbit myocardial infarction model", "assay": "Rabbit ischemia-reperfusion myocardial infarction model", "assay_type": "in vivo", "conditions": "1 mg/kg 1 hr before ligation; normal group as 100%", "description": "Male NZW rabbits (Japan SLC) were fixed in the dorsal position and subjected to thoracotomy with pentobarbital anesthesia. A silk thread (No. 4) was applied to the proximal left coronary artery, a polyethylene tube (length 1 cm) was further applied and the left coronary artery was ligated using a thread. After 2 hr from the ligation, the thread on the polyethylene tube was cut to reperfusion. After 4 hr from the reperfusion, the proximal coronary artery was ligated using a silk thread (No. 4), and 3% Evans blue solution (1 mL/kg) was intravenously administered. After 5 min, an excess pentobarbital was administered and the heart and aorta were removed. The heart was cut into a 3 mm-wide annular shape, and the left ventricle area and ischemia region (Evans blue unstained region) were traced.\nAfter incubation in 1% TTC solution for 30 min, an infarction focus (TTC unstained region) was traced. Compound A (1 mg/kg) was administered 1 hr before the ligation.\nThe ratios of the ischemic region and infarction focus to the left ventricle area were calculated. […]\nThis suspension was centrifuged at 3000 rpm for 10 min, and the supernatant (8 mL) was centrifuged at 15000 rpm for 15 min. The obtained supernatant was mixed with phosphate buffer containing o-dianisidine dihydrochloride, kept at 25° C. for 30 min, the absorbance (OD460) was measured, and the myeloperoxidase (MPO) activity was determined. […]"}, "[4]": {"test_system": "rabbit chronic myocardial infarction (heart failure) model", "assay": "Rabbit chronic myocardial infarction (heart failure) model", "assay_type": "in vivo", "experimental": "Male NZW rabbits (Japan SLC) were fixed in the dorsal position and subjected to thoracotomy with pentobarbital anesthesia. A silk thread (No. 4) was applied to the basal part of the left coronary artery, a polyethylene tube (length 1 cm) was further applied and the left coronary artery was ligated using a thread. After 2 hr from the ligation, the thread on the polyethylene tube was cut to reperfusion. At 2 hr from the reperfusion, compound A (1 mg/kg) was administered once, and administered once a day for 12 weeks. After 12 weeks, an excess pentobarbital was administered, the heart was removed, and the weight thereof and the thickness of the left ventricle center wall were measured.\nThe compound was evaluated by the mortality rate, heart weight and thickness of left ventricle."}, "[5]": {"conditions": "0.1 μM added to aorta ring in vitro"}, "[6]": {"conditions": "1 μM added to aorta ring in vitro"}, "[7]": {"conditions": "1 mg/kg once a day for 12 weeks"}, "[8]": {"conditions": "1 mg/kg once a day, deaths/animals"}}, "note": "Marks after values point to notes of the source that are not given here."}
{"compound": "C[C@@H](Nc1nnc(-c2ccccc2)c2ccccc12)C1CCCCC1.O=C(O)/C=C\\C(=O)O", "note": "[compound A]", "values": [{"measurement": "IC50", "setting": "NAD(P)H oxidase; from dose-effect line by least squares", "result": 6.3, "unit": "nM"}, {"measurement": "inhibitory rate (%) of IL-8 production", "setting": "NAD(P)H oxidase; test compound concentration 0.01 μM", "result": 39.5, "unit": "%"}, {"measurement": "inhibitory rate (%) of IL-8 production", "setting": "NAD(P)H oxidase; test compound concentration 0.1 μM", "result": 59.8, "unit": "%"}, {"measurement": "inhibitory rate (%) of IL-8 production", "setting": "NAD(P)H oxidase; test compound concentration 1 μM", "result": 74, "unit": "%"}, {"measurement": "inhibitory rate (%), NAD(P)H oxidase in normal rat aorta", "setting": "[1]", "result": 1.8, "unit": "%"}, {"measurement": "effect on superoxide anion production in normal rat", "setting": "[1]; result in words", "result": "did not affect the superoxide anion production"}, {"measurement": "chemiluminescence (×10^5 RLU/wet weight of aorta)", "setting": "[1]; normal rat aorta, mean ± standard error", "result": "3.89 ± 3.0 ×10^5 RLU/wet weight of aorta"}, {"measurement": "inhibitory rate (%)", "setting": "[2]; [5]", "result": 2.2, "unit": "%"}, {"measurement": "chemiluminescence (×10^5 RLU/wet weight of aorta)", "setting": "[2]; [5]", "result": "9.1 ± 1.7 ×10^5 RLU/wet weight of aorta"}, {"measurement": "inhibitory rate (%)", "setting": "[2]; [6]", "result": 1.1, "unit": "%"}, {"measurement": "chemiluminescence (×10^5 RLU/wet weight of aorta)", "setting": "[2]; [6]", "result": "9.2 ± 1.7 ×10^5 RLU/wet weight of aorta"}, {"measurement": "NAD(P)H oxidase inhibitory effect on aorta ring in vitro", "setting": "[2]; result in words", "result": "did not show an NAD(P)H oxidase inhibitory effect"}, {"measurement": "p22^phox expression ((p22^Phox)/(β-actin), normal as 100%)", "setting": "p22^Phox; oxidized LDL 100 μg/mL + 0.1 μM compound, mean ± standard error", "result": "116.64 ± 16.61", "unit": "%"}, {"measurement": "p22^Phox expression relative to the normal group", "setting": "p22^Phox; oxidized LDL addition", "result": 1.2, "unit": "fold"}, {"measurement": "MPO activity in myocyte", "setting": "[3]", "result": 128, "unit": "%*"}, {"measurement": "mortality rate", "setting": "[4]; 1 mg/kg once a day", "result": 8, "unit": "%"}, {"measurement": "heart weight (g/kg body weight)", "setting": "[4]; [7]", "result": "2.05* g/kg body weight"}, {"measurement": "thickness (mm) of left ventricle", "setting": "[4]; [7]", "result": "1.17* mm"}, {"measurement": "cumulative mortality, 2 weeks after ligation", "setting": "[4]; [8]", "result": "0/12"}, {"measurement": "cumulative mortality, 4 weeks after ligation", "setting": "[4]; [8]", "result": "1/12"}]}
